# In patent publication US11161837B2, “Benzofuran derivatives for the treatment of hepatitis C” (BRISTOL-MYERS SQUIBB COMPANY, priority 2016, dated 2021):
# Test system: genotype 1b (Con-1) HCV replicon in Huh-7 cells
# Assay: HCV replicon luciferase assay
# Assay type: cell-based
# Details: 1b replicon, Huh-7, Renilla luciferase, 3 days incubation
# Method: The cell lines used to evaluate compounds consist of a human hepatocyte derived cell line (Huh-7) that constitutively expresses a genotype 1b (Con-1) HCV replicon or a genotype 1b (Con-1) HCV replicon with an asparagine replacing the cysteine at amino acid 316, or a genotype 2a (JFH-1) replicon, containing a Renilla luciferase reporter gene. These cells were maintained in Dulbecco's modified Eagle medium (DMEM) containing 10% FBS, 100 U/mL penicillin/streptomycin and 1.0 mg/mL G418.
# HCV Replicon Luciferase Assay.
# To evaluate compound efficacy, titrated compounds were transferred to sterile 384-well tissue culture treated plates, and the plates were seeded with HCV replicon cells (50 μL at a density of 2.4×10^3 cells/well) in DMEM containing 4% FBS (final DMSO concentration at 0.5%). After 3 days incubation at 37° C., cells were analyzed for Renilla Luciferase activity using the EnduRen substrate (Promega cat # E6485) according to the manufacturer's directions. Briefly, the EnduRen substrate was diluted in DMEM and then added to the plates to a final concentration of 7.5 μM. The plates were incubated for at least 1 h at 37° C. then read on a Viewlux Imager (PerkinElmer) using a luminescence program. The 50% effective concentration (EC50) was calculated using the four-parameter logistic formula noted above.
row,Structure (SMILES),EC50
1,"CNC(=O)c1c(-c2ccc(F)cc2)oc2cc(CCC(F)(F)F)c(-c3cccc(C(=O)NC4(c5ncccn5)CC(OC(F)F)C4)c3)cc12 (single isomer, unassigned) [Example 29b]",30 nM
2,"CNC(=O)c1c(-c2ccc(F)cc2)oc2cc(CCC(F)(F)F)c(-c3cc(C(=O)NC4(c5ncccn5)CC(OC(F)(F)F)C4)c(OC)cc3C)cc12 (single isomer, unassigned) [Example 46b, 2-(4-Fluorophenyl)-5-(4-methoxy-2-methyl-5-((1-(pyrimidin-2-yl)-3-(trifluoromethoxy)cyclobutyl)carbamoyl)phenyl)-N-methyl-6-(3,3,3-trifluoropropyl)benzofuran-3-carboxamide]",80 nM
3,"CNC(=O)c1c(-c2ccc(F)cc2)oc2cc(CCC(F)(F)F)c(-c3cc(C(=O)NC4(C)CC(OC(F)F)C4)c(OC)cc3C)cc12 (single isomer, unassigned) [Example 53b, 5-(5-((3-(Difluoromethoxy)-1-methylcyclobutyl)carbamoyl)-4-methoxy-2-methylphenyl)-2-(4-fluorophenyl)-N-methyl-6-(3,3,3-trifluoropropyl)benzofuran-3-carboxamide]",60 nM

# Same assay, conditions: Hepatitis C virus, Huh-7, 72 h, 1b replicon, Huh-7, Renilla luciferase, 3 days incubation
row,Structure (SMILES),EC50
1,"CNC(=O)c1c(-c2ccc(F)cc2)oc2cc(CCC(F)(F)F)c(-c3cc(C(=O)NC4(c5ncccn5)CC(OC(F)(F)F)C4)c(OC)cc3C)cc12 (single isomer, unassigned) [Example 46a, 2-(4-Fluorophenyl)-5-(4-methoxy-2-methyl-5-((1-(pyrimidin-2-yl)-3-(trifluoromethoxy)cyclobutyl)carbamoyl)phenyl)-N-methyl-6-(3,3,3-trifluoropropyl)benzofuran-3-carboxamide]",40 nM
2,"CCCc1cc2oc(-c3ccc(F)cc3)c(C(=O)NC)c2cc1-c1ccc(F)c(C(=O)NC2(c3ncccn3)CC(OC(F)(F)F)C2)c1 (single isomer, unassigned) [Example 48a, 5-(4-Fluoro-3-((1-(pyrimidin-2-yl)-3-(trifluoromethoxy)cyclobutyl)carbamoyl)phenyl)-2-(4-fluorophenyl)-N-methyl-6-propylbenzofuran-3-carboxamide]",20 nM
3,"CNC(=O)c1c(-c2ccc(F)cc2)oc2cc(CCC(F)(F)F)c(-c3ccc(F)c(C(=O)NC4(c5ncccn5)CC(OC(F)(F)F)C4)c3)cc12 (single isomer, unassigned) [Example 49a, 5-(4-Fluoro-3-((1-(pyrimidin-2-yl)-3-(trifluoromethoxy)cyclobutyl)carbamoyl)phenyl)-2-(4-fluorophenyl)-N-methyl-6-(3,3,3-trifluoropropyl)benzofuran-3-carboxamide]",20 nM
4,"CCCc1cc2oc(-c3ccc(F)cc3)c(C(=O)NC)c2cc1-c1cc(C(=O)NC2(c3ncccn3)CC(OC(F)(F)F)C2)c(OC)cc1C (single isomer, unassigned) [Example 50a, 2-(4-Fluorophenyl)-5-(4-methoxy-2-methyl-5-((1-(pyrimidin-2-yl)-3-(trifluoromethoxy)cyclobutyl)carbamoyl)phenyl)-N-methyl-6-propylbenzofuran-3-carboxamide]",120 nM
5,"CNC(=O)c1c(-c2ccc(F)cc2)oc2cc(CCC(F)(F)F)c(-c3cc(C(=O)NC4(C)CC(OC(F)F)C4)c(OC)cc3C)cc12 (single isomer, unassigned) [Example 53a, 5-(5-((3-(Difluoromethoxy)-1-methylcyclobutyl)carbamoyl)-4-methoxy-2-methylphenyl)-2-(4-fluorophenyl)-N-methyl-6-(3,3,3-trifluoropropyl)benzofuran-3-carboxamide]",60 nM
6,"CCCc1cc2oc(-c3ccc(F)cc3)c(C(=O)NC)c2cc1-c1cccc(C(=O)NC2(C)CC(OC(F)F)C2)c1 (single isomer, unassigned) [Example 55a, 5-(3-((3-(Difluoromethoxy)-1-methylcyclobutyl)carbamoyl)phenyl)-2-(4-fluorophenyl)-N-methyl-6-propylbenzofuran-3-carboxamide]",30 nM
